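Results reflect a 48-hour exposure of cells in 96-well plates to compound at five concentrations. TGI: total growth inhibition.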
Legend:
Test in all cases: NCI anticancer screen, dose series, 48 h
[1] = test system: 786-0 renal
[2] = test system: A498 renal
[3] = test system: A549 NSCLC
[4] = test system: ACHN renal
[5] = test system: CAKI-1 renal
[6] = test system: CCRF-CEM leukemia
[7] = test system: COLO 205 colon
[8] = test system: DLD-1 colon
[9] = test system: DMS 114 small cell lung
[10] = test system: DMS 273 small cell lung
[11] = test system: EKVX NSCLC
[12] = test system: HCC-2998 colon
[13] = test system: HCT-116 colon
[14] = test system: HCT-15 colon
[15] = test system: HOP-18 NSCLC
[16] = test system: HOP-62 NSCLC
[17] = test system: HOP-92 NSCLC
[18] = test system: HT29 colon
[19] = test system: IGROV1 ovarian
[20] = test system: K-562 leukemia
[21] = test system: KM12 colon
[22] = test system: KM20L2 colon
[23] = test system: LOX IMVI melanoma
[24] = test system: M14 melanoma
[25] = test system: M19-MEL melanoma
[26] = test system: MALME-3M melanoma
[27] = test system: NCI-H226 lung
[28] = test system: NCI-H23 lung
[29] = test system: NCI-H460 lung
[30] = test system: OVCAR-3 ovarian
[31] = test system: OVCAR-4 ovarian
[32] = test system: OVCAR-5 ovarian
[33] = test system: OVCAR-8 ovarian
[34] = test system: RPMI-8226 leukemia
[35] = test system: SF-268 CNS
[36] = test system: SF-295 CNS
[37] = test system: SF-539 CNS
[38] = test system: SK-MEL-2 melanoma
[39] = test system: SK-MEL-28 melanoma
[40] = test system: SK-MEL-5 melanoma
[41] = test system: SK-OV-3 ovarian
[42] = test system: SN12C renal
[43] = test system: SNB-19 CNS
[44] = test system: SNB-75 CNS
[45] = test system: SNB-78 CNS
[46] = test system: SW-620 colon
[47] = test system: TK-10 renal
[48] = test system: U251 CNS
[49] = test system: UACC-257 melanoma
[50] = test system: UACC-62 melanoma
[51] = test system: UO-31 renal
[52] = test system: XF 498 CNS
[53] = test system: BT-549 breast
[54] = test system: DU-145 prostate
[55] = test system: HL-60(TB) leukemia
[56] = test system: HS 578T breast
[57] = test system: MCF7 breast
[58] = test system: MDA-MB-231 breast
[59] = test system: MDA-MB-435
[60] = test system: MDA-N
[61] = test system: MOLT-4 leukemia
[62] = test system: NCI-H522 lung
[63] = test system: NCI/ADR-RES ovarian
[64] = test system: PC-3 prostate
[65] = test system: RXF 393 renal
[66] = test system: SR leukemia
[67] = test system: T-47D breast
[68] = test system: LXFL 529 NSCLC

With `Cc1ccccc1Cn1nc2ccccc2cc1=O` the TGI [1] was over 100 µM, the TGI [2] was over 100 µM and the TGI [3] was over 100 µM. It also gave a TGI [4] of over 100 µM, a TGI [5] of over 100 µM and a TGI [6] of over 100 µM. For the same compound, the TGI [7] was over 100 µM, the TGI [8] was over 100 µM and the TGI [9] was over 100 µM. The TGI [10] was over 100 µM, the TGI [11] was over 100 µM and the TGI [12] was over 100 µM. For the same compound, the TGI [13] was over 100 µM, the TGI [14] was over 100 µM and the TGI [15] was over 100 µM. For the same compound, the TGI [16] was over 100 µM, the TGI [17] was over 100 µM and the TGI [18] was over 100 µM. The TGI [19] was over 100 µM, the TGI [20] was over 100 µM and the TGI [21] was over 100 µM. The TGI [22] was over 100 µM, the TGI [23] was over 100 µM and the TGI [24] was over 100 µM. It also gave a TGI [25] of over 100 µM, a TGI [26] of over 100 µM and a TGI [27] of over 100 µM. For the same compound, the TGI [28] was over 100 µM, the TGI [29] was over 100 µM and the TGI [30] was over 100 µM. It also gave a TGI [31] of over 100 µM, a TGI [32] of over 100 µM and a TGI [33] of over 100 µM. It also gave a TGI [34] of over 100 µM, a TGI [35] of over 100 µM and a TGI [36] of over 100 µM. The TGI [37] was over 100 µM, the TGI [38] was over 100 µM and the TGI [39] was over 100 µM. The TGI [40] was over 100 µM, the TGI [41] was over 100 µM and the TGI [42] was over 100 µM. For the same compound, the TGI [43] was over 100 µM, the TGI [44] was over 100 µM and the TGI [45] was over 100 µM. For the same compound, the TGI [46] was over 100 µM, the TGI [47] was over 100 µM and the TGI [48] was over 100 µM. For the same compound, the TGI [49] was over 100 µM, the TGI [50] was over 100 µM and the TGI [51] was over 100 µM. The TGI [52] was over 100 µM.

In the case of `COc1ccc(/C=C2\C(=O)NC(=O)c3ccccc32)cc1OC`, the TGI [1] is reported as 44.5 µM, the TGI [2] is reported as over 100 µM and the TGI [3] is reported as over 100 µM. For the same compound, the TGI [4] was over 74.7 µM, the TGI [53] was over 100 µM and the TGI [5] was over 100 µM. For the same compound, the TGI [6] was 21.9 µM, the TGI [7] was over 100 µM and the TGI [8] was 19.2 µM. The TGI [9] was 18.4 µM, the TGI [10] was over 100 µM and the TGI [54] was over 100 µM. For the same compound, the TGI [11] was over 100 µM, the TGI [12] was over 100 µM and the TGI [13] was 43.1 µM. It also gave a TGI [14] of over 100 µM, a TGI [55] of 16.2 µM and a TGI [15] of over 100 µM. It also gave a TGI [16] of 58.3 µM, a TGI [17] of 39.8 µM and a TGI [56] of over 100 µM. For the same compound, the TGI [18] was over 100 µM, the TGI [19] was over 83.2 µM and the TGI [20] was over 70.9 µM. For the same compound, the TGI [21] was over 100 µM, the TGI [22] was over 100 µM and the TGI [23] was 55.8 µM. It also gave a TGI [24] of over 100 µM, a TGI [25] of over 100 µM and a TGI [26] of over 100 µM. The TGI [57] was over 100 µM, the TGI [58] was over 100 µM and the TGI [59] was 99.1 µM. It also gave a TGI [60] of over 66.8 µM, a TGI [61] of 76.6 µM and a TGI [27] of 99 µM. The TGI [28] was over 90.5 µM, the TGI [29] was 67.4 µM and the TGI [62] was 49.6 µM. It also gave a TGI [63] of over 100 µM, a TGI [30] of over 26.4 µM and a TGI [31] of 62.1 µM. The TGI [32] was over 100 µM, the TGI [33] was 42.2 µM and the TGI [64] was over 100 µM. The TGI [34] was 47.9 µM, the TGI [65] was 33.9 µM and the TGI [35] was over 69.9 µM. It also gave a TGI [36] of over 100 µM, a TGI [37] of 22.9 µM and a TGI [38] of over 94.5 µM. It also gave a TGI [39] of over 100 µM, a TGI [40] of over 94.4 µM and a TGI [41] of 81 µM. The TGI [42] was over 100 µM, the TGI [43] was over 93.6 µM and the TGI [44] was over 87.5 µM. It also gave a TGI [45] of over 66.2 µM, a TGI [66] of 18.9 µM and a TGI [46] of 46.3 µM. The TGI [67] was over 100 µM, the TGI [47] was over 100 µM and the TGI [48] was over 63.5 µM. It also gave a TGI [49] of over 100 µM, a TGI [50] of 78.2 µM and a TGI [51] of 80 µM. For the same compound, the TGI [52] was 42.5 µM.

`CCCC(=O)Nc1ccc(O)c2c1C1CCCCCC21` (stereo not drawn) showed a TGI [1] of over 100 µM, a TGI [3] of over 100 µM and a TGI [4] of over 100 µM. For the same compound, the TGI [6] was over 100 µM, the TGI [7] was over 100 µM and the TGI [9] was over 100 µM. For the same compound, the TGI [10] was over 100 µM, the TGI [11] was over 100 µM and the TGI [13] was over 100 µM. For the same compound, the TGI [14] was over 100 µM, the TGI [55] was over 100 µM and the TGI [15] was over 100 µM. It also gave a TGI [16] of over 100 µM, a TGI [18] of over 100 µM and a TGI [20] of over 100 µM. The TGI [21] was over 100 µM, the TGI [22] was over 100 µM and the TGI [23] was over 100 µM. It also gave a TGI [68] of over 100 µM, a TGI [24] of over 100 µM and a TGI [25] of over 100 µM. It also gave a TGI [26] of over 100 µM, a TGI [61] of over 100 µM and a TGI [27] of over 100 µM. For the same compound, the TGI [28] was over 100 µM, the TGI [29] was over 100 µM and the TGI [62] was over 100 µM. The TGI [31] was over 100 µM, the TGI [33] was over 100 µM and the TGI [34] was over 100 µM. For the same compound, the TGI [65] was over 100 µM, the TGI [35] was over 100 µM and the TGI [36] was over 100 µM. The TGI [38] was over 100 µM, the TGI [39] was over 100 µM and the TGI [40] was over 100 µM. The TGI [41] was over 100 µM, the TGI [42] was over 100 µM and the TGI [43] was over 100 µM. It also gave a TGI [44] of over 100 µM, a TGI [45] of over 100 µM and a TGI [66] of over 100 µM. It also gave a TGI [46] of over 100 µM, a TGI [47] of over 100 µM and a TGI [48] of over 100 µM. It also gave a TGI [49] of over 100 µM, a TGI [50] of over 100 µM and a TGI [51] of over 100 µM. For the same compound, the TGI [52] was over 100 µM.
